Values joined by “and” are separate entries in the source; they are usually repeats but may differ in a detail not shown here. Equal values may be shown once.
Assay: Glucose, insulin, and pyruvate tolerance tests
Assay type: in vivo, mouse
Parameters: AUC of IGTT, Total Area / AUC analysis of ITT, Total Area / AUC of ITT, group mean / AUC of PTT, group mean / IGTT, Mean Diff. APC - VEH / IGTT, group mean (Mean 1, APC): unit not given beside the values
Description: After overnight fasting, mice were i.p. injected or treated orally with D-glucose (1–2 g/kg) for glucose-tolerance tests (IGTT or OGTT) or injecting with sodium pyruvate (1–2 g/kg) for pyruvate tolerance tests (PTT). Insulin-tolerance tests (ITT) were performed by i.p. injection of insulin (1 U/kg) 2-h after food removal. […]

[1] = db/db mice, ip APC, ITT 0-120 min
[2] = db/db mice, ip APC, 15 min, n=6
[3] = db/db mice, ip APC, 30 min, n=6
[4] = db/db mice, ip APC, 60 min, n=6
[5] = db/db mice, ip APC, 120 min, n=6
[6] = db/db mice, ip APC, PTT 0-120 min

CC(C)=CCc1cc(C=CC(=O)O)cc(CC=C(C)C)c1O [APC, 3,5-diprenyl-4-hydroxycinnamic acid]
IGTT, group mean (Mean 1, APC) (db/db mice, 30 min, n=8): 281
IGTT, Mean Diff. APC - VEH (db/db mice, 60 min): -166.5
IGTT, group mean (Mean 1, APC) (db/db mice, 60 min, n=8): 217.8
IGTT, Mean Diff. APC - VEH (db/db mice, 120 min): -105
IGTT, group mean (Mean 1, APC) (db/db mice, 120 min, n=8): 171
AUC of ITT (Total Area), individual mice (db/db mice, ip APC): 528.6 and 524.4 and 533.7 and 561.3 and 514.8 and 472.5
AUC of ITT in db, difference between means (APC - VEH) ± SEM (db/db mice, ip APC): -215.2 ± 51.46
AUC of PTT, individual mice (db/db mice, ip APC): 534.6 and 662.4 and 481.5 and 659.7 and 691.6 and 494.5
IGTT blood glucose (db/db mice, ip APC, 0 mins, individual mouse, n=8): 153 mg/dL and 144 mg/dL and 142.2 mg/dL and 138.6 mg/dL and 176.4 mg/dL and 127.8 mg/dL and 140.4 mg/dL and 113.4 mg/dL
IGTT blood glucose (db/db mice, ip APC, 15 mins, individual mouse, n=8): 477 mg/dL and 363.6 mg/dL and 334.8 mg/dL and 511.2 mg/dL and 419.4 mg/dL and 423 mg/dL and 480.6 mg/dL and 525.6 mg/dL
IGTT blood glucose (db/db mice, ip APC, 30 mins, individual mouse, n=8): 262.8 mg/dL and 450 mg/dL and 293.4 mg/dL and 275.4 mg/dL and 228.4 mg/dL and 228.6 mg/dL and 124.2 mg/dL and 385.2 mg/dL
IGTT blood glucose (db/db mice, ip APC, 60 mins, individual mouse, n=8): 205.2 mg/dL and 233.8 mg/dL and 221.4 mg/dL and 237.6 mg/dL and 329.4 mg/dL and 163.8 mg/dL and 135 mg/dL and 216 mg/dL
IGTT blood glucose (db/db mice, ip APC, 120 mins, individual mouse, n=8): 176.4 mg/dL and 270 mg/dL and 153 mg/dL and 138.6 mg/dL and 250.2 mg/dL and 133.2 mg/dL and 99 mg/dL and 147.6 mg/dL
ITT blood glucose, difference between column means (CT vs APC) [1]: 51.32
ITT blood glucose, mean over all time points (Mean of APC) [1]: 134.7
ITT blood glucose, Mean Diff. APC - CT (db/db mice, ip APC, 0 min): -52.47
ITT blood glucose, individual mice (db/db mice, ip APC, 0 min): 178.2 mg/dL and 172.8 mg/dL and 156.6 mg/dL and 194.4 mg/dL and 190.4 mg/dL and 192.6 mg/dL
ITT blood glucose, group mean (Mean 1, APC) (db/db mice, ip APC, 0 min, n=6): 180.8
ITT blood glucose, Mean Diff. APC - CT (db/db mice, ip APC, 15 min): -63.57
ITT blood glucose, individual mice (db/db mice, ip APC, 15 min): 137.6 mg/dL and 129.6 mg/dL and 153 mg/dL and 133 mg/dL and 138.3 mg/dL and 126 mg/dL
ITT blood glucose, group mean (Mean 1, APC) [2]: 136.3
ITT blood glucose, Mean Diff. APC - CT (db/db mice, ip APC, 30 min): -56.08
ITT blood glucose, individual mice (db/db mice, ip APC, 30 min): 101.2 mg/dL and 129.6 mg/dL and 115.2 mg/dL and 124.2 mg/dL and 128.4 mg/dL and 111.6 mg/dL
ITT blood glucose, group mean (Mean 1, APC) [3]: 118.4
ITT blood glucose, Mean Diff. APC - CT (db/db mice, ip APC, 60 min): -54.15
ITT blood glucose, individual mice (db/db mice, ip APC, 60 min): 120.6 mg/dL and 115 mg/dL and 129.6 mg/dL and 138.6 mg/dL and 105.2 mg/dL and 91.8 mg/dL
ITT blood glucose, group mean (Mean 1, APC) [4]: 116.8
ITT blood glucose, Mean Diff. APC - CT (db/db mice, ip APC, 120 min): -30.35
ITT blood glucose, individual mice (db/db mice, ip APC, 120 min): 160.2 mg/dL and 127.6 mg/dL and 115.2 mg/dL and 136.6 mg/dL and 95.3 mg/dL and 93.6 mg/dL
ITT blood glucose, group mean (Mean 1, APC) [5]: 121.4
PTT blood glucose, difference between column means (VEH vs APC) [6]: 95.48
PTT blood glucose, mean over all time points (Mean of APC) [6]: 143.6
PTT blood glucose, Mean Diff. APC - VEH (db/db mice, ip APC, 0 min): -59.27
PTT blood glucose, individual mice (db/db mice, ip APC, 0 min): 156.6 mg/dL and 129.6 mg/dL and 131.4 mg/dL and 153 mg/dL and 147.6 mg/dL and 135.8 mg/dL
PTT blood glucose, group mean (Mean 1, APC) (db/db mice, ip APC, 0 min, n=6): 142.3
PTT blood glucose, Mean Diff. APC - VEH (db/db mice, ip APC, 15 min): -65.02
PTT blood glucose, individual mice (db/db mice, ip APC, 15 min): 142.2 mg/dL and 181.8 mg/dL and 156.6 mg/dL and 169.2 mg/dL and 180.5 mg/dL and 149.4 mg/dL
PTT blood glucose, group mean (Mean 1, APC) [2]: 163.3
PTT blood glucose, Mean Diff. APC - VEH (db/db mice, ip APC, 30 min): -106.5
PTT blood glucose, individual mice (db/db mice, ip APC, 30 min): 135 mg/dL and 194.4 mg/dL and 126 mg/dL and 172.8 mg/dL and 163.7 mg/dL and 142.2 mg/dL
PTT blood glucose, group mean (Mean 1, APC) [3]: 155.7
PTT blood glucose, Mean Diff. APC - VEH (db/db mice, ip APC, 60 min): -119.1
PTT blood glucose, individual mice (db/db mice, ip APC, 60 min): 124.2 mg/dL and 140.4 mg/dL and 99 mg/dL and 169.2 mg/dL and 201.6 mg/dL and 93.6 mg/dL
PTT blood glucose, group mean (Mean 1, APC) [4]: 138
PTT blood glucose, Mean Diff. APC - VEH (db/db mice, ip APC, 120 min): -127.5
PTT blood glucose, individual mice (db/db mice, ip APC, 120 min): 109.8 mg/dl and 162 mg/dl and 68.4 mg/dl and 144 mg/dl (2×) and 82.8 mg/dl
PTT blood glucose, group mean (Mean 1, APC) [5]: 118.5
IGTT AUC, Total Area (db/db mice, ip APC, individual mouse, n=8): 1110 and 1254 and 997.2 and 1163 and 1191 and 945.9 and 859.5 and 1257
AUC of ITT in db, group mean (db/db mice, ip APC, n=6): 522.6
AUC in PTT, mean of differences (APC - VEH) (db/db mice, ip APC, paired t test, 6 pairs): -383.9
AUC of IGTT in db/db, group mean (db/db mice, n=8): 1097
AUC of ITT, group mean (mean of APC group, n=7): 367.6

From article PMC8752738, “A propolis-derived small molecule ameliorates metabolic syndrome in obese mice by targeting the CREB/CRTC2 transcriptional complex” (Nature Communications, 2022)
